# Reference: patent publication US11719488B2, “Lyophilization process and a teverelix-TFA lyophilizate obtained thereby” (Antev Limited, priority 2018, dated 2023)
# Structures can show the parent of a compound that is named as a salt. Non-standard residues stand in square brackets, D forms with d. Residues, ends and D or L forms follow the SMILES beside them. dPhe(4-Cl) = N[C@H](Cc1ccc(Cl)cc1)C(=O)O; d2Nal = N[C@H](Cc1ccc2ccccc2c1)C(=O)O; d(hCit) = NC(=O)NCCCC[C@@H](N)C(=O)O; Lys(iPr) = CC(C)NCCCC[C@H](N)C(=O)O; d3Pal = N[C@H](Cc1cccnc1)C(=O)O
# Test: Solubility of teverelix-TFA
# Type: physicochemical
smiles,measurement,value
"CC(=O)N[C@H](Cc1ccc2ccccc2c1)C(=O)N[C@H](Cc1ccc(Cl)cc1)C(=O)N[C@H](Cc1cccnc1)C(=O)N[C@@H](CO)C(=O)N[C@@H](Cc1ccc(O)cc1)C(=O)N[C@H](CCCCNC(N)=O)C(=O)N[C@@H](CC(C)C)C(=O)N[C@@H](CCCCNC(C)C)C(=O)N1CCC[C@H]1C(=O)N[C@H](C)C(N)=O [Teverelix-TFA, Ac-D-Nal-D-pClPhe-D-Pal-Ser-Tyr-D-Hci-Leu-Lys(iPr)-Pro-D-Ala-NH2] (Ac-[d2Nal][dPhe(4-Cl)][d3Pal]SY[d(hCit)]L[Lys(iPr)]P[dA]-NH2)",solubility in water,very low solubility in water
